For 45 molecules, inhibition results are on record in patent US8486948B2, “Piperazinodihydrothienopyrimidine derivatives” (Boehringer Ingelheim International GmbH, priority 2007, dated 2013).

Each structure is given as a SMILES string. Counter-ions that a name gives are not always drawn.

Chain of PDE4B (Q07343 whole entry, species assumed): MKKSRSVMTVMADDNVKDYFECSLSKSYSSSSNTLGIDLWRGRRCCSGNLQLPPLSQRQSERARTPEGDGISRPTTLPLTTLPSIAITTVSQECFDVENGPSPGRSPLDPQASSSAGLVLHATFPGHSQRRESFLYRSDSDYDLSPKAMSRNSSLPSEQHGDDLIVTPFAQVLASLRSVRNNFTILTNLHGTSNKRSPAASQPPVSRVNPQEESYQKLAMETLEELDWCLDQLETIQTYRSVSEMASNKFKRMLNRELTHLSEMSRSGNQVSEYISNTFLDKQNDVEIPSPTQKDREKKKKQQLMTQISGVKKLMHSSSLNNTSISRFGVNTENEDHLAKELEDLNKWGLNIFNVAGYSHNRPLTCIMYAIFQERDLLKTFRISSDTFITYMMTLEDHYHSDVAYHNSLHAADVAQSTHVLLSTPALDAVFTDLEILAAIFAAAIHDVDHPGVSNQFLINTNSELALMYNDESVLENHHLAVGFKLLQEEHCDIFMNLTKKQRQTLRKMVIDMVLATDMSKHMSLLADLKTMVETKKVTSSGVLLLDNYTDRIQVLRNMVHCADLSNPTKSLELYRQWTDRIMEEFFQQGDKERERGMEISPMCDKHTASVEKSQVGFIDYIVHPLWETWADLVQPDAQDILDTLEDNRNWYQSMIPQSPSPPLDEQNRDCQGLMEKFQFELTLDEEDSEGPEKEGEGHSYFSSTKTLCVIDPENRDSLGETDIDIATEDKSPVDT

For one experiment, the target named is PDE4B (Homo sapiens, UniProt Q07343). Briefly: Scintillation Proximity (SPA) assay, inhibition of PDE4B at 1 μM. The format is biochemical. The following applies: Table A; test substance 1 μM; one hour incubation with [H3]-cAMP at 30° C. The protocol: The inhibitions (in %) at 1 μM of the individual Example substances are included in the following Tables of Examples and were determined as follows:
The Scintilation Proximity (SPA) Assays (GE Healthcare, No. TRKQ7090) make use of the different affinities of cyclic 3″-5″-adenosine monophosphate (cAMP, low affinity) and linear 5′-adenosine monophosphate (AMP, high affinity) for yttrium silicate scintillator beads. The cAMP specific phosphodiesterase (PDE) PDE4B cleaves the 3′-phosphoester bond of the tritium-labelled [H3]-cAMP to form the [H3]-5′-AMP. Because of its higher affinity for the scintillator beads this [H3]-AMP accumulates on the beads and causes scintillation events (flashes of light) which are measured in a Wallac Microbeta Scintillation Counter.
The test starts with one hour's incubation of [H3]-cAMP with the PDE4B enzyme in assay buffer at 30° C., once with the Example substance that is to be tested (in a concentration of 1 μM) and once without the Example substance that is to be tested. After this incubation the reaction is stopped by the addition of the beads. The beads are given an opportunity to settle over the next 45 minutes, then they are measured in the Scintillation Counter. If the substance is capable of inhibiting the enzymatic activity of the PDE4B, less [H3]-AMP is formed during the incubation phase and fewer scintillation events can be measured.
(SPA uses beads or plates that emit light when radiolabelled molecules are held near them.)
For the molecule `O=C1CN(c2nc3c(c(NC4CCOCC4)n2)[S+]([O-])CC3)CCN1c1ccc(Br)cc1` (stereo not drawn) [Example 12], testing at 1 µM gave an inhibition of 93%. Take `CC(C)[C@H](CO)Nc1nc(N2CCN(c3ccccc3)C(=O)C2)nc2c1[S+]([O-])CC2` (stereo partly drawn) [Example 15]: the inhibition – broadly, how much of the control response was suppressed – at 1 µM was 77%. Still for that read-out and setting: under `[O-][S+]1CCc2nc(N3CC4CC3CN4c3ccc(Cl)cc3)nc(NC3(CO)CC3)c21` (stereo not drawn) [Example 8] stands 95%; under `[O-][S+]1CCc2nc(N3CC4CC3CN4c3ccc(Cl)cc3)nc(NC3CCOCC3)c21` (stereo not drawn) [Example 6], 95%. As for `[O-][S+]1CCc2nc(N3C4CC[C@@H]3CN(c3ccc(Br)cc3)C4)nc(NC3(CO)CC3)c21` (stereo partly drawn) [Example 28, (1-{2-[3-(4-bromophenyl)-3,8-diazabicyclo[3.2.1]oct-8-yl]-5-oxo-6,7-dihydro-5H-5λ^4-thieno[3,2-d]pyrimidin-4-ylamino}-cyclopropyl)-methanol trifluoroacetate], testing at 1 µM gave an inhibition of 97%. In the case of `O=C1CN(c2nc3c(c(NC4(CO)CC4)n2)[S+]([O-])CC3)CCN1c1ccccc1` (stereo not drawn) [Example 16], the inhibition at 1 µM was 86%. On the same count and under the same terms, under `O=C1CN(c2nc3c(c(NC4CCOCC4)n2)[S+]([O-])CC3)CCN1c1ccccc1` (stereo not drawn) [Example 18] stands 93%. For `C[C@H]1CN(c2ccc(Cl)cc2)CCN1c1nc2c(c(Nc3cccc(F)c3)n1)[S+]([O-])CC2` (stereo partly drawn) [Example 10], the inhibition at 1 µM is 94%.

The molecule `O=C1CN(c2nc3c(c(Nc4cccc(F)c4)n2)[S+]([O-])CC3)CCN1c1ccccc1` (stereo not drawn) [Example 19] gave an inhibition at 1 µM of 95%.

`[O-][S+]1CCc2nc(N3CC4CC3CN4c3cccc(F)c3)nc(NC3(CO)CC3)c21` (stereo not drawn) [Example 23] displayed an inhibition at 1 µM of 93%. For `O=C1CN(c2nc3c(c(NC4(CO)CC4)n2)[S+]([O-])CC3)CCN1c1ccc(Br)cc1` (stereo not drawn) [Example 11], the inhibition at 1 µM was found to be 90%.

`CN1C[C@@H](Nc2nc(N3C[C@H]4CC3CN4c3ccc(Cl)cc3)nc3c2[S+]([O-])CC3)CCC1=O` (stereo partly drawn) [Example 9, (S)-5-{2-[5-(4-chlorophenyl)-2,5-diazabicyclo[2,2,1]hept-2-yl]-5-oxo-6,7-dihydro-5H-5λ^4-thieno[3,2-d]pyrimidin-4-ylamino}-1-methylpiperidin-2-one] returned an inhibition at 1 µM of 96%. Consider `[O-][S+]1CCc2nc(N3C[C@H]4CC3CN4c3nc4ccccc4o3)nc(NC3CCOCC3)c21` (stereo partly drawn) [Example 29, [2-(5-benzoxazol-2-yl-2,5-diazabicyclo[2,2,1]hept-2-yl)-5-oxo-6,7-dihydro-5H-5λ^4-thieno[3,2-d]pyrimidin-4-yl]-(tetrahydropyran-4-yl)-amine], for which testing at 1 µM gave an inhibition of 97%. Same read-out and setting: the same measure for `[O-][S+]1CCc2nc(N3CC4CC3CN4c3ccc(F)cc3)nc(NC3CCOCC3)c21` (stereo not drawn) [Example 26]: 94%; for `CC(C)[C@H](CO)Nc1nc(N2CCN(c3ccc(Cl)cc3)C[C@@H]2C)nc2c1[S+]([O-])CC2` (stereo partly drawn) [Example 2]: 94%; for `[O-][S+]1CCc2nc(N3CC4CC3CN4c3ccc(Cl)cc3)nc(Nc3cccc(F)c3)c21` (stereo not drawn) [Example 7]: 95%. The molecule `O=C1CN(c2nc3c(c(NC4CCOCC4)n2)[S+]([O-])CC3)CCN1c1cccc(Br)c1` (stereo not drawn) [Example 14] yielded an inhibition at 1 µM of 92%.

As to `CC(C)[C@H](CO)Nc1nc(N2CCN(c3ccc(Cl)cc3)C[C@H]2C)nc2c1[S+]([O-])CC2` (stereo partly drawn) [Example 1, (R)-2-{2-[(R)-4-(4-chlorophenyl)-2-methylpiperazin-1-yl]-5-oxo-6,7-dihydro-5H-5λ^4-thieno[3,2-d]pyrimidin-4-ylamino}-3-methylbutan-1-ol], testing at 1 µM gave an inhibition of 84%. As for `C[C@H]1CN(c2ccc(Cl)cc2)CCN1c1nc2c(c(NC3CCOCC3)n1)[S+]([O-])CC2` (stereo partly drawn) [Example 4], at 1 µM the inhibition was 95%.

In turn, `[O-][S+]1CCc2nc(N3C4CCC3CN(c3ccc(Br)cc3)C4)nc(NC3CCOCC3)c21` (stereo not drawn) [Example 27] had an inhibition at 1 µM of 97%.

`C[C@H]1CN(c2ccc(Cl)cc2)CCN1c1nc2c(c(N[C@H]3CCC(=O)N(C)C3)n1)[S+]([O-])CC2` (stereo partly drawn) [Example 3] yielded an inhibition at 1 µM of 96%. Turning to `CN1C[C@@H](Nc2nc(N3CCN(c4ccccc4)C(=O)C3)nc3c2[S+]([O-])CC3)CCC1=O` (stereo partly drawn) [Example 17], the inhibition at 1 µM came to 96%. For `[O-][S+]1CCc2nc(N3CC4CC3CN4c3ccc(Br)cc3)nc(NC3CCOCC3)c21` (stereo not drawn) [Example 20], the inhibition at 1 µM is 95%.

As for `C[C@H]1CN(c2ccc(Cl)cc2)CCN1c1nc2c(c(NC3(CO)CC3)n1)[S+]([O-])CC2` (stereo partly drawn) [Example 5], the inhibition at 1 µM was 95%.

For the molecule `[O-][S+]1CCc2nc(N3CC4CC3CN4c3cccc(F)c3)nc(NC3CCOCC3)c21` (stereo not drawn) [Example 25], the inhibition at 1 µM was 94%.

The same experiment, now with this note: Table C; test substance 1 μM; one hour incubation with [H3]-cAMP at 30° C.
`[O-][S+]1CCc2nc(N3CCn4c(Cc5ccc(Cl)c(Cl)c5)nnc4C3)nc(NC3CCOCC3)c21` (stereo not drawn) [Example 36] showed an inhibition at 1 µM of 93%. In the case of `[O-][S+]1CCc2nc(N3CCn4c(Cc5ccc(Cl)c(Cl)c5)nnc4C3)nc(Nc3cccc(F)c3)c21` (stereo not drawn) [Example 40, {2-[3-(3,4-dichlorobenzyl)-5,6-dihydro-8H-[1,2,4]triazolo[4,3-a]pyrazin-7-yl]-5-oxo-6,7-dihydro-5H-5λ^4-thieno[3,2-d]pyrimidin-4-yl}-(3-fluorophenyl)-amine], the inhibition at 1 µM worked out at 94%. In turn, `[O-][S+]1CCc2nc(N3CCn4c(Cc5ccc(Cl)c(Cl)c5)nnc4C3)nc(NC3(CO)CC3)c21` (stereo not drawn) [Example 32] displayed an inhibition at 1 µM of 91%.

`CC(C)[C@H](CO)Nc1nc(N2CCn3c(nnc3-c3ccc(F)cc3)C2)nc2c1[S+]([O-])CC2` (stereo partly drawn) [Example 43] showed an inhibition at 1 µM of 88%. In turn, `[O-][S+]1CCc2nc(N3CCn4cnnc4C3)nc(NC3CCOCC3)c21` (stereo not drawn) [Example 37, [2-(5,6-DIHYDRO-8H-[1,2,4]TRIAZOLO[4,3-A]PYRAZIN-7-YL)-5-OXO-6,7-DIHYDRO-5H-5λ^4-THIENO[3,2-D]PYRIMIDIN-4-YL]-(TETRAHYDRO-PYRAN-4-YL)-AMINE TRIFLUOROACETATE] showed an inhibition at 1 µM of 87%. In turn, `[O-][S+]1CCc2nc(N3CCn4c(nnc4-c4ccc(F)cc4)C3)nc(Nc3cccc(F)c3)c21` (stereo not drawn) [Example 39, (3-fluorophenyl)-{2-[3-(4-fluorophenyl)-5,6-dihydro-8H-[1,2,4]triazolo[4,3-a]pyrazin-7-yl]-5-oxo-6,7-dihydro-5H-5λ^4-thieno[3,2-d]pyrimidin-4-yl}-amine] returned an inhibition at 1 µM of 95%.

Take `[O-][S+]1CCc2nc(N3CCn4cnnc4C3)nc(Nc3cccc(F)c3)c21` (stereo not drawn) [Example 41, [2-(5,6-DIHYDRO-8H-[1,2,4]TRIAZOLO[4,3-A]PYRAZIN-7-YL)-5-OXO-6,7-DIHYDRO-5H-5λ^4-THIENO[3,2-D]PYRIMIDIN-4-YL]-(3-FLUOROPHENYL)-AMINE TRIFLUOROACETATE]: the inhibition at 1 µM amounted to 90%. Consider `CCOC(=O)c1cn2c(n1)CN(c1nc3c(c(N[C@@H](CO)C(C)C)n1)[S+]([O-])CC3)CC2` (stereo partly drawn) [Example 42], for which 1 µM produced 94% inhibition. As for `CCOC(=O)c1cn2c(n1)CN(c1nc3c(c(NC4CCOCC4)n1)[S+]([O-])CC3)CC2` (stereo not drawn) [Example 34], testing at 1 µM gave an inhibition of 95%.

Regarding `CCOC(=O)c1cn2c(n1)CN(c1nc3c(c(Nc4cccc(F)c4)n1)[S+]([O-])CC3)CC2` (stereo not drawn) [Example 38], 1 µM produced 95% inhibition. In turn, `CCOC(=O)c1cn2c(n1)CN(c1nc3c(c(NC4(CO)CC4)n1)[S+]([O-])CC3)CC2` (stereo not drawn) [Example 30] displayed an inhibition at 1 µM of 95%. `[O-][S+]1CCc2nc(N3CCn4c(nnc4-c4ccc(F)cc4)C3)nc(NC3CCOCC3)c21` (stereo not drawn) [Example 35]: 1 µM produced 94% inhibition.

The same experiment, now with this note: Table D; test substance 1 μM; one hour incubation with [H3]-cAMP at 30° C.
In turn, `CN1C[C@@H](Nc2nc(N3CCn4c(nnc4-c4ccc(F)cc4)C3)nc3c2[S+]([O-])CC3)CCC1=O` (stereo partly drawn) [Example 47] gave an inhibition at 1 µM of 96%.

Turning to `Cc1cn(C)nc1CN(C)C(=O)c1cn2c(n1)CN(c1nc3c(c(NC4CCOCC4)n1)[S+]([O-])CC3)CC2` (stereo not drawn) [Example 56], the inhibition at 1 µM amounted to 94%. Consider `Cc1nn(C)cc1C(C)NC(=O)c1cn2c(n1)CN(c1nc3c(c(NC4CCOCC4)n1)[S+]([O-])CC3)CC2` (stereo not drawn) [Example 52], for which at 1 µM the inhibition was 93%.

For the molecule `CN(C(=O)c1cn2c(n1)CN(c1nc3c(c(NC4CCOCC4)n1)[S+]([O-])CC3)CC2)C1CCOCC1` (stereo not drawn) [Example 54], the inhibition at 1 µM came out at 94%. With `CCOC(=O)c1cn2c(n1)CN(c1nc3c(c(N[C@H]4CCC(=O)N(C)C4)n1)[S+]([O-])CC3)CC2` (stereo partly drawn) [Example 46], at 1 µM the inhibition was 97%.

`O=C(c1cn2c(n1)CN(c1nc3c(c(NC4CCOCC4)n1)[S+]([O-])CC3)CC2)N1CCOCC1` (stereo not drawn) [Example 48, Morpholin-4-yl-{7-[5-oxo-4-(tetrahydropyran-4-ylamino)-6,7-dihydro-5H-5λ^4-thieno[3,2-d]pyrimidin-2-yl]-5,6,7,8-tetrahydroimidazo[1,2-a]pyrazin-2-yl}-methanone]: 1 µM produced 93% inhibition. `Cc1nn(C)c(C)c1CNC(=O)c1cn2c(n1)CN(c1nc3c(c(NC4CCOCC4)n1)[S+]([O-])CC3)CC2` (stereo not drawn) [Example 51] returned an inhibition at 1 µM of 94%.

`CC(C)(NC(=O)c1cn2c(n1)CN(c1nc3c(c(NC4CCOCC4)n1)[S+]([O-])CC3)CC2)c1ccncc1` (stereo not drawn) [Example 53] registered an inhibition at 1 µM of 94%.
